Assay results taken from patent US8188312B2, “Acyclic sulfamide derivatives” (Fundacion Imabis. Instituto Mediterraneo para el Avance de …, priority 2006, dated 2012).
Entries after “also recorded” stand apart in the source; their conditions may differ. Values belong to the compound of their own block, whether it stands above or below them.

Tests used:
[1] = Food intake study: acute treatment in food-deprived rats; type: in vivo, male Wistar rats; details: i.p., rats food-deprived 24 h; 30, 60, 120 and 240 min
Method: FIG. 3: Activity of OEA analogs as feeding suppressants. Food intake in food-deprived animals was tested 30, 60, 120 and 240 min after the i.p injection of the different compounds synthesized at different doses. Here we show results for compounds 2 (A), 7 (B), 12 (C), 19 (D) and 20 (E). […] Results are means±SEM of at least three determinations per group. (*) p<0.05, (**) p<0.01, (***) p<0.001, versus vehicle, ANOVA.
The effects of the different compounds on feeding behaviour were analyzed in male Wistar rats deprived of food for 24 hours, which were accustomed to its manipulation (Navarro, M et al. 1996 J. Neurochem. 67 (1996):1982. Rodriguez de Fonseca, F. et al. Nature 414 (2001):209. Fu, J et al. Nature, 425 (2003):90). For this aim, 48 hours before every assay rats were set out in single cages, the base material (sand or sawdust) was removed and little food containers were set out into the cage for 4 hours. After this initial phase, animals were deprived of food for 24 hours, always with free access to water. After 24 hours of fast, different treatment groups were established (N=8-10 every group) and different doses of the sulfamide corresponding to each experimental session were administrated i.p. in their vehicle solution in a volume of 1 mL/kg, as well as a control group only treated with the vehicle: • 1) Group treated with a 0.03 mg/kg dose of the sulfamide in vehicle solution. • 2) Group treated with a […] dose of the sulfamide in vehicle. • 3) Group with a 3 mg/kg dose of the corresponding sulfamide in vehicle. • 4) Control group treated with the vehicle tween-80 at 5% in physiological serum.
15 minutes after the administration, the containers with a known food amount (normally 30-40 g) and a bottle of fresh water were placed. These containers were weighted 30, 60, 120 and 240 minutes after their presentation, so that the food ingested by each animal was controlled.

[2] = target: T1, human PPARα (Homo sapiens, UniProt Q07869); assay: Luciferase reporter gene assay (RGA) in transfected MCF-7 cells; type: cell-based; details: for induction of luciferase activity with overexpression of TIF2: TIF2 cotransfected, 1 μM; for induction of luciferase activity with overexpression of TIF2 / induction of the basal level of PPARα on the PPRE (relative luciferase activity): MCF-7 cells, 16 h; for induction of the basal level of PPARα on the PPRE (relative luciferase activity): endogenous coregulator levels, 10 μM WY14643, 1 μM OEA and analogs; for activation of PPARα (receptor-mediated transcription): summary statement
T1 construct: expressed in transfected cells; host or cells: MCF-7 human breast cancer cells, transiently transfected (DOTAP)
T1 sequence (Q07869 1-468): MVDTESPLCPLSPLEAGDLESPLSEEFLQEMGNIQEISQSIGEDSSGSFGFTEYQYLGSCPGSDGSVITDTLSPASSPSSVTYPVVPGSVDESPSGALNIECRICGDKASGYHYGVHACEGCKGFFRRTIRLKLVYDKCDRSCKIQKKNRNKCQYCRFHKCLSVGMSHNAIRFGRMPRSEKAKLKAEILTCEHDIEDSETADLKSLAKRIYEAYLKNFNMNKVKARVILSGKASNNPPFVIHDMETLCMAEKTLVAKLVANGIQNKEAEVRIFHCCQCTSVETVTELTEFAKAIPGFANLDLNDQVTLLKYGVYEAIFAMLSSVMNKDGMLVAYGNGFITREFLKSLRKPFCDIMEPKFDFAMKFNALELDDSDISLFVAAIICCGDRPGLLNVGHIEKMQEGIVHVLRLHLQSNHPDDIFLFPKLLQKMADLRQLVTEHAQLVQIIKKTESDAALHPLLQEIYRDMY
Method: FIG. 2: Agonistic action of OEA and analogs. Luciferase reporter gene assays were performed with extracts from MCF-7 cells that were transiently transfected with a luciferase reporter construct containing three copies of the human ACO of PPRE. (A) Wild type human PPARα expression vector was also cotransfected as indicated. Cells were treated for 16 h with solvent (DMSO), and different concentrations (*10^−8, *10^−7, **10^−6 and **10^−5 M) of OEA, compound 2, or *10^−7, **10^−6 and **10^−5 M of anandamide (AEA, used as a negative control), 7 (*10^−8, *10^−7, **10^−6 and **10^−5 M) and 12 (*10^−7, **10^−6 and **10^−5 M). (*p<0.05, (**) p<0.01 vs vehicle, #p<0.01 vs vehicle and without ACO) (B) Wild type human PPARα expression as well as plasmids coding full length TIF2 were also cotransfected as indicated. Cells were treated for 16 h with solvent (DMSO), 10 μM WY14643, 1 μM OEA and its analogs 2, 7 and 12. Relative luciferase activities were measured in reference to solvent-induced cells not overexpressing any protein. Columns represent the mean of at least three experiments and bars indicate SD. (*p<0.01 vs vehicle, #p<0.01 vs vehicle and without TIF2).
Breast cancer human cells MCF-7 were seeded in a 6-well culture plate (10^5 cells/mL) and cultured in a Dulbecco modified Eagle medium (DMEM) free from phenol red, supplied with 5% of fetal bovine serum (FBS) treated with carbon (Macias-Gonzalez, M et al. Mol. End. 17 (2003): 2028).
The liposomes with DNA plasmids were obtained by incubation of 1 μg of the reporter plasmid with luciferase and the wild type human PPAR-α expression vector with 10 μg of N-1-(2,3-dioleyloxi)-propyl-N,N,N-trimethylammonium (DOTAP from Roche Diagnostics) for 15 minutes at room temperature in a total volume of 100 μL. After the dilution with 900 μL of DMEM free from phenol red, the liposomes were added to the cells. 4-5 h after the transfection of the cells, the DMEM free from phenol red supplemented with 500 μL of FBS treated with carbon at 15% was added, in this case with the PPAR-α ligands (OEA, AEA and sulfamides derivatives) or control solvents (DMSO) at different concentrations of 10^−8, 10^−7, 10^−6 and 10^−5 M.
The cells were lysed 16 hours after the beginning of the stimulation with the reporter gene lysis buffer (Roche Diagnostics) and the reporter gene assay or RGA luciferase of constant luminous signal was carried out following the manufactures recommendations (Roche Diagnostics). The luciferase activities were standardized with regard to the protein concentration and the induction factors were calculated as the ratio of luciferase activity of ligand stimulated cells in relation to the solvent controls (Vaisanen, S. et al. Mol. Pharmacol. 62 (2002):788).

[3] = Subchronic treatment in genetically obese Zucker rats; type: in vivo; details: 11 days, 1 mg/kg i.p. daily
Source text: (§1) FIG. 4: Effects of chronic treatment with 7 (N-octadecyl-N′-propylsulfamide) on body weight gain and plasma triglycerides. […] Results are means±SEM of at least three determinations per group. (*) p<0.05, versus vehicle, ANOVA.
To further explore the anti-obesity properties of this compound, we used an additional animal model of obesity.

[4] = Food intake studies: chronic treatment, body weight and plasma triglycerides; type: in vivo, male Wistar rats
Method: as §1
A chronic treatment with the compounds was carried out using male Wistar rats which were accustomed to its manipulation.
For this aim, rats were set out in single cages keeping the base material (sand or sawdust). After an adaptation phase to the conditions of the husbandry where the assay was carried out, three different groups (N=8 every group) were established according to the received treatment: • 1) Group treated with example 6 in its vehicle solution with a 1 mg/kg dose. • 2) Group treated with tween-80 vehicle at 5% in physiological serum. • 3) Control group treated with physiological serum.
The total duration of the experiment was eight days, with two i.p. daily administrations (injected volume of 1 mL/kg) of the different solutions with an interval of 12 hours between both injections. Everyday and previously to the administration at 8:00, each animal was weighted. During the total time of the assay, the single weight of each animal and the biochemical parameters in serum were daily controlled.

[5] = cited from earlier work
[6] = 8 days, 1 mg/kg i.p., normal rats, vs vehicle, 1 mg/kg

melting point: 105 to 107 °C | induction of the basal level of PPARα on the PPRE (relative luciferase activity) [2]: did not provide induction
Compound: CCCCCCCCCCCCCCCCCCNS(N)(=O)=O [Compound 2, N-octadecylsulfamide]
food intake / feeding behaviour [1]: clearly reduced food intake; also recorded: reduces feeding behaviour | induction of luciferase activity with overexpression of TIF2 [2]: did not provide significantly higher induction | activation of PPARα (receptor-mediated transcription) [2]: did not activate PPAR receptor-mediated transcription; also recorded: does not activate PPARα

melting point: 82 to 83 °C
Compound: CCCCCCCC/C=C\CCCCCCCCNS(=O)(=O)NCCC

melting point: 68 to 70 °C
Compound: CCCCCCCC/C=C\CCCCCCCCNS(N)(=O)=O [Compound 1, N-(cis-9-octadecenyl)sulfamide]

melting point: 102 to 104 °C
Compound: CCCCCCCCCCCCCCCCNS(N)(=O)=O [Compound 3, N-hexadecylsulfamide]

melting point: 108 to 110 °C
Compound: CCCCCCCCCCCCCCCCNS(=O)(=O)NCCC [Compound 8, N-hexadecyl-N′-propylsulfamide]

melting point: 110 to 112 °C | induction of the basal level of PPARα on the PPRE (relative luciferase activity) [2]: ~6 times | activation of PPARα (receptor-mediated transcription) [2]: potent activator of PPARα
Compound: CCCCCCCCCCCCCCCCCCNS(=O)(=O)NCCC [Compound 7, N-octadecyl-N′-propylsulfamide]
food intake [3]: reduced | body weight gain (cumulative relative weight gain) ([3]; 1 mg/kg): reduced body weight gain; also recorded: reduces cumulative relative weight gain | food intake / feeding behaviour [1]: potent feeding suppressant | body weight [4, 6]: reduces body weight | plasma triglycerides [4, 6]: marked reduction in plasma triglycerides; also recorded: reduces | active dose ([4]; i.p.): 1 mg/kg

induction of the basal level of PPARα on the PPRE (relative luciferase activity) [2]: ~6 times
Compound: Cc1cccc(Nc2cc(Cl)nc(SCC(=O)O)n2)c1C [WY14643, reference compound]

melting point: 105 to 107 °C
Compound: CCCCCCCCCCCCCCNS(=O)(=O)NCCC [Compound 9, N-propyl-N′-tetradecylsulfamide]

induction of the basal level of PPARα on the PPRE (relative luciferase activity) [2]: ~6 times
Compound: CCCCCCCC/C=C\CCCCCCCC(=O)NCCO [OEA]
dose at which hypolipemiant effects are present ([5]; described in the literature): greater than 5 mg/kg | food intake (literature finding) ([5]; through activation of the nuclear receptor PPARα): decrease food intake

induction of the basal level of PPARα on the PPRE (relative luciferase activity) [2]: did not provide induction | activation of PPARα (receptor-mediated transcription) [2]: neither activates PPARα
Compound: CCCNS(=O)(=O)NC12CC3CC(CC(C3)C1)C2 [Compound 12, N-propyl-N′-adamantylsulfamide]
food intake / feeding behaviour [1]: nor suppress food intake | induction of luciferase activity with overexpression of TIF2 [2]: did not provide significantly higher induction

melting point: 99 to 101 °C
Compound: CCCCCCCCCCCCCCNS(N)(=O)=O [Compound 4, N-tetradecylsulfamide]
